Earlier results, collected in patent publication US11825820B2, “Poly-glutamine androgen receptor knock-in mouse models, reagents and methods” (priority 2017, dated 2023).
Like-named read-outs stand apart in the source and are kept apart here.

Legend:
[1] = test system: patients with NASH/NAFLD scores of 3 to 8
[2] = test system: animal models of NASH
[3] = 100 mg, 250 mg vs Pioglitazone 45 mg; 28 days
[4] = test system: NASH; settings: 30 mg/day
[5] = test system: patients with nonalcoholic steatohepatitis; settings: 24 weeks

CSc1ccc(C(=O)/C=C/c2cc(C)c(OC(C)(C)C(=O)O)c(C)c2)cc1 [Elafibranor]
anti-inflammatory effects ([1]; Phase IIb claims): Anti-inflammatory effects
insulin sensitivity and glucose homeostasis ([1]; Phase IIb claims): Improved insulin sensitivity and glucose homeostasis
markers of hepatic dysfunction, including liver enzymes ALT, AST, GGT, ALP ([1]; Phase IIb claims): Improvement in markers of hepatic dysfunction
plasma lipids (triglyceride, LDL-C, HDL-C) ([1]; Phase IIb claims): reduction in triglyceride and LDL-C and increased HDL-C levels
RR, Elafibranor vs placebo ([1]; Phase IIb, after withdrawal of NAS <4 patients): 1.9
positive result, Elafibranor vs placebo ([1]; Phase IIb, after withdrawal of NAS <4 patients, placebo 12.7%, p=0.046): 22.4%
safety profile ([1]; clinical trials, toxicology studies up to two-year carcinogenicity): good safety profile with no unwanted side effects
statistical significance of results across the entire study population ([1]; entire study population incl. NAS <4 patients): prevented Elafibranor from having statistically significant results
histological parameters NASH (steatosis, inflammation, fibrosis) [2]: Beneficial effects on histological parameters NASH

COc1cccc(C(=O)COc2ccc(CC3SC(=O)[N-]C3=O)cc2)c1.[K+] (stereo not drawn) [MSCD-0602K]
adiponectin levels vs Pioglitazone [3]: equivalent to Pioglitazone
overall glucose control vs Pioglitazone [3]: equivalent to Pioglitazone

CCc1ccc(CCOc2ccc(CC3SC(=O)NC3=O)cc2)nc1 (stereo not drawn) [Pioglitazone]
side effects [4]: weight gain, edema, bone fractures and increased risk of bladder cancer

Cc1cc(F)c(C(=O)Nc2cccc(-c3nncn3C(C)C)n2)cc1-n1cnc(C2CC2)c1 [selonsertib]
proportion of patients with a one or more stage reduction in fibrosis ([5]; 6-mg selonsertib group, 8 of 27, 95% CI 14-50): 30%
proportion of patients with a one or more stage reduction in fibrosis ([5]; 18-mg selonsertib group, 13 of 30, 95% CI 26-63): 43%

B1: simtuzumab (antibody, chains of the INN, looked up, V domains shown)
VH: QVQLVQSGAEVKKPGASVKVSCKASGYAFTYYLIEWVRQAPGQGLEWIGVINPGSGGTNYNEKFKGRATITADKSTSTAYMELSSLRSEDTAVYFCARNWMNFDYWGQGTTVTVSS
VL: DIVMTQTPLSLSVTPGQPASISCRSSKSLLHSNGNTYLYWFLQKPGQSPQFLIYRMSNLASGVPDRFSGSGSGTDFTLKISRVEAEDVGVYYCMQHLEYPYTFGGGTKVEIK
notes: comparator group (simtuzumab-alone) in the selonsertib Phase 2 study
proportion of patients with a one or more stage reduction in fibrosis ([5]; simtuzumab-alone group, 2 of 10, 95% CI 3-56): 20%
